US20240368163A1, “COMPOUNDS AND METHODS FOR MODULATING SPLICING” (REMIX THERAPEUTICS INC., priority 2021, published 2024)

System: HTT
Experiment: HiBiT protein abundance assay, HTT
Format: cell-based, human
Conditions: Homo sapiens, K562, 24 h, modified K562 cells
Outline: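 Luminescent readout from lytic HiBiT/LgBiT complementation reports endogenous tagged protein level in engineered K562 cells. Compounds dosed 24 h, top 10 μM final, 3-fold steps, 10 points. IC50 is the concentration giving 50% of untreated-control abundance, from 4-parameter logistic fit.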

Compound | IC50 (Table 13A) | IC50 (Table 13B)
CN(c1ccc(-c2ccc(-c3cnn(C)c3)c3cn[nH]c23)nn1)C1CCNCC1 [Compound 242] | 1 to 10 µM | –
CN(c1ncc(-c2ccc(-n3cccn3)c3[nH]ncc23)nn1)[C@@H]1C[C@H]2CCC[C@@H](C1)N2 [Compound 551] | < 0.1 µM | –
CN(c1ccc(-c2ccc(-c3cn[nH]c3)c(C#N)n2)nn1)[C@@H]1C[C@H]2CC[C@@H](C1)N2 [Compound 930] | – | < 0.1 µM
c1n[nH]cc1-c1ccc(-c2ccc(N[C@@H]3C[C@H]4CCC[C@@H](C3)N4)nn2)c2[nH]ncc12 [Compound 294] | 0.1 to 1 µM | –
COc1nc(-c2ccc(O[C@@H]3C[C@H]4CC[C@@H](C3)N4)nn2)ccc1-c1cnc(C)s1 [Compound 962] | – | 0.1 to 1 µM
CN(c1ncc(-c2ccc(-n3ccnn3)c3[nH]ncc23)nn1)[C@@H]1C[C@H]2CCC[C@@H](C1)N2 [Compound 576] | < 0.1 µM | –
Fc1cc(-c2ccc(N[C@@H]3C[C@H]4CC[C@@H](C3)N4)nn2)c2scnc2c1-c1cn[nH]c1 [Compound 339] | < 0.1 µM | –
COc1nc(-c2ccc(OC3CC(C)(C)NC(C)(C)C3)nn2)ccc1-c1cn[nH]c1 [Compound 917] | – | < 0.1 µM
CC(C)(C)C1CN(c2ncc(-c3ccc(-n4cccn4)c4[nH]ncc34)nn2)CCN1 (stereo not drawn) [Compound 572] | < 0.1 µM | –
CN(c1ccc(-c2ccc(-c3cn[nH]c3)c(OC3CC3)n2)nn1)[C@@H]1C[C@H]2CC[C@@H](C1)N2 [Compound 939] | – | < 0.1 µM
COc1nc(-c2ccc(N(C)C3CC(C)(C)NC(C)(C)C3)nn2)ccc1-c1cn[nH]c1 [Compound 919] | – | < 0.1 µM
COc1nc(-c2ccc(N(C)[C@@H]3C[C@H]4CC[C@@H](C3)N4)nn2)ccc1-c1cn[nH]c1 [Compound 906] | – | < 0.1 µM
[2H]C([2H])([2H])N(c1ccc(-c2ccc(-c3cn[nH]c3)c3ncsc23)nn1)[C@@H]1C[C@H]2CCC[C@@H](C1)N2 [Compound 227] | < 0.1 µM | –
[2H]C([2H])([2H])N(c1ccc(-c2ccc(-c3cn[nH]c3)c3ncsc23)nn1)[C@@H]1C[C@H]2CC[C@@H](C1)N2 [Compound 210] | < 0.1 µM | –
Cc1ncc(-c2ccc(-c3ccc(O[C@@H]4C[C@H]5CC[C@@H](C4)N5)nn3)c3scnc23)s1 [Compound 348, 7-{6-[(exo)-8-azabicyclo[3.2.1]octan-3-yloxy]pyridazin-3-yl}-4-(2-methyl-1,3-thiazol-5-yl)-1,3-benzothiazole] | < 0.1 µM | –
COc1nc(-c2ccc(N(C)C3CC(C)(C)NC(C)(C)C3)nn2)ccc1-c1cnn(C)c1 [Compound 920] | – | < 0.1 µM
CN(c1ccc(-c2ccc(-c3cn[nH]c3)c3cn[nH]c23)nn1)[C@@H]1C[C@H]2CC[C@@H](C1)N2 [Compound 104] | < 0.1 µM | –
CN(c1ncc(-c2ccc(-n3cncn3)c3[nH]ncc23)nn1)[C@@H]1C[C@H]2CCC[C@@H](C1)N2 [Compound 574] | < 0.1 µM | –
COc1nc(-c2ccc(OC3CC(C)(C)NC(C)(C)C3)nn2)ccc1-c1cnn(C)c1 [Compound 918] | – | < 0.1 µM
CC(C)(C)NC1CCN(c2ccc(-c3ccc(-c4cn[nH]c4)c4ncsc34)nn2)C1 (stereo not drawn) [Compound 336] | < 0.1 µM | –
COc1nc(-c2ccc(OC3CC(C)(C)NC(C)(C)C3)nn2)cc(F)c1-c1cn[nH]c1 [Compound 965] | – | < 0.1 µM

Compound | IC50 (Table 13A) | IC50 (Table 13B)
CC(C)(C)[C@H]1CN(c2ncc(-c3ccc(-n4cccn4)c4[nH]ncc34)nn2)CCN1 [Compound 581] | < 0.1 µM | –
COc1nc(-c2ccc(N(C)[C@@H]3C[C@H]4CC[C@@H](C3)N4)nn2)cc(F)c1-c1cn[nH]c1 [Compound 931] | – | < 0.1 µM
Fc1cc(-c2ccc(O[C@@H]3C[C@H]4CC[C@@H](C3)N4)nn2)c2[nH]ncc2c1-c1cn[nH]c1 [Compound 216] | < 0.1 µM | –
Fc1cc(-c2ccc(O[C@@H]3C[C@H]4CC[C@@H](C3)N4)nn2)c2sncc2c1-c1cn[nH]c1 [Compound 327] | < 0.1 µM | –
CCN(c1ccc(C2=CC=C(c3cn[nH]c3)C3N=CSC23)nn1)[C@@H]1C[C@H]2CC[C@@H](C1)N2 (stereo partly drawn) [Compound 203] | < 0.1 µM | –
CN(c1ccc(-c2cc(F)c(-c3cn[nH]c3)c3cn[nH]c23)nn1)[C@@H]1C[C@H]2CC(F)(F)[C@@H](C1)N2 (stereo in doubt) [Compound 378, 6,6-difluoro-N-{6-[5-fluoro-4-(1H-pyrazol-4-yl)-1H-indazol-7-yl]pyridazin-3-yl}-N-methyl-8-azabicyclo[3.2.1]octan-3-amine] | < 0.1 µM | –
c1nc2c(-c3cn[nH]c3)ccc(-c3ccc(OC4CCNCC4)nn3)c2s1 [Compound 183] | < 0.1 µM | –
CN(c1ccc(-c2ccc(-c3cn[nH]c3)c(OC(F)F)n2)nn1)[C@@H]1C[C@H]2CC[C@@H](C1)N2 [Compound 955] | – | < 0.1 µM
CN(c1ccc(-c2ccc(-c3cn[nH]c3)c3ncsc23)nn1)[C@@H]1C[C@H]2CCC[C@@H](C1)N2 [Compound 226] | < 0.1 µM | –
CN(c1ccc(-c2ccc(-n3cccn3)c3cn[nH]c23)nn1)[C@@H]1C[C@H]2CC[C@@H](C1)N2 [Compound 105] | < 0.1 µM | –
CN(c1ccc(-c2ccc(-c3cn[nH]c3)c3ncsc23)nn1)[C@@H]1C[C@H]2CC(F)(F)[C@@H](C1)N2 (stereo in doubt) [Compound 379, 6,6-difluoro-N-methyl-N-{6-[4-(1H-pyrazol-4-yl)-1,3-benzothiazol-7-yl]pyridazin-3-yl}-8-azabicyclo [3.2.1]octan-3-amine] | < 0.1 µM | –
CC1(C)CC(Oc2ccc(-c3cc(F)c(-c4cn[nH]c4)c4cn[nH]c34)nn2)CC(C)(C)N1 [Compound 307] | < 0.1 µM | –
c1nc2c(-c3cn[nH]c3)ccc(-c3ccc(N[C@@H]4C[C@H]5CCC[C@@H](C4)N5)nn3)c2s1 [Compound 215] | < 0.1 µM | –
CC1(C)CC(Oc2ccc(-c3ccc(-c4cn[nH]c4)c4ncsc34)nn2)CCN1 (stereo not drawn) [Compound 182] | < 0.1 µM | –
c1nc2c(-c3cn[nH]c3)ccc(-c3ccc(N4CCC(NC5CC5)C4)nn3)c2s1 (stereo not drawn) [Compound 337] | 1 to 10 µM | –
COc1nc(-c2ccc(OC3CC4CC(F)(F)C(C3)N4)nn2)cc(F)c1-c1cn[nH]c1 (stereo not drawn) [Compound 969] | – | 0.1 to 1 µM
CN(c1ccc(-c2ccc(-c3cn[nH]c3)cn2)nn1)[C@@H]1C[C@H]2CC[C@@H](C1)N2 [Compound 915] | – | 0.1 to 1 µM
Cc1cc(-c2ccc(-c3cnc(N(C)[C@@H]4C[C@H]5CCC[C@@H](C4)N5)nn3)c3scnc23)sn1 [Compound 580] | < 0.1 µM | –
CN(c1ccc(-c2ccc(-c3cn[nH]c3)c3ncsc23)nn1)[C@@H]1C[C@H]2CC[C@@H](C1)N2 [Compound 213] | < 0.1 µM | –
CCN(c1ccc(-c2ccc(-c3cn[nH]c3)c3ncsc23)nn1)[C@@H]1C[C@H]2CCC[C@@H](C1)N2 [Compound 228] | < 0.1 µM | –
CCOc1nc(-c2ccc(OC3CC(C)(C)NC(C)(C)C3)nn2)cc(F)c1-c1cn[nH]c1 [Compound 966] | – | < 0.1 µM

Compound | IC50 (Table 13A) | IC50 (Table 13B)
COc1nc(-c2ccc(N3CCC(NC(C)(C)C)C3)nn2)ccc1-c1cn[nH]c1 (stereo not drawn) [Compound 956] | – | < 0.1 µM
CN(c1ccc(-c2ccc(-c3cn[nH]c3)c3cn[nH]c23)nn1)C1CC(C)(C)NC(C)(C)C1 [Compound 137] | 0.1 to 1 µM | –
COc1cc(-c2ccc(-c3ccc(N(C)C4CC(C)(C)NC(C)(C)C4)nn3)c3scnc23)cnn1 [Compound 330] | < 0.1 µM | –
Cc1nc(-c2ccc(-c3cnc(N(C)[C@@H]4C[C@H]5CCC[C@@H](C4)N5)nn3)c3scnc23)cs1 [Compound 579] | 0.1 to 1 µM | –
CN(c1ccc(-c2cc(F)c(-c3cnn(C)c3)c3cn[nH]c23)nn1)[C@@H]1C[C@H]2CC[C@@H](C1)N2 [Compound 291] | < 0.1 µM | –
CN(c1ccc(-c2ccc(-c3cn[nH]c3)c3ncsc23)nn1)[C@H]1C[C@]2(C)CC[C@](C)(C1)N2 [Compound 204] | < 0.1 µM | –
CN(c1ccc(-c2ccc(-c3cn[nH]c3)c(F)n2)nn1)[C@@H]1C[C@H]2CC[C@@H](C1)N2 [Compound 922] | – | < 0.1 µM
CCOc1nc(-c2ccc(OC3CC(C)(C)NC(C)(C)C3)nn2)ccc1-c1cn[nH]c1 [Compound 967] | – | < 0.1 µM
c1cnn(-c2ccc(-c3cnc(N[C@@H]4C[C@H]5CC[C@@H](C4)N5)nn3)c3cn[nH]c23)c1 [Compound 556] | < 0.1 µM | –
COc1nc(-c2ccc(N(C)[C@@H]3C[C@H]4CC[C@@H](C3)N4)nn2)ccc1-c1ccnc(O)c1 [Compound 961] | – | 0.1 to 1 µM
c1nc2c(-c3cn[nH]c3)ccc(-c3ccc(N[C@@H]4C[C@H]5CC[C@@H](C4)N5)nn3)c2s1 [Compound 202] | < 0.1 µM | –
CC1(C)CC(Nc2ccc(-c3ccc(-c4cn[nH]c4)c4ncsc34)nn2)CC(C)(C)N1 [Compound 186] | < 0.1 µM | –
CN(c1ccc(-c2ccc(-c3cn[nH]c3)c3ncsc23)nn1)C1CC(C)(C)NC(C)(C)C1 [Compound 132] | 0.1 to 1 µM | –
Fc1ccn(-c2ccc(-c3ccc(O[C@@H]4C[C@H]5CC[C@@H](C4)N5)nn3)c3scnc23)n1 [Compound 363] | < 0.1 µM | –
CN(c1ccc(-c2ccc(-c3ccc(=O)n(C)c3)c3scnc23)nn1)C1CC(C)(C)NC(C)(C)C1 [Compound 178] | > 10 µM | –
c1cnn(-c2ccc(-c3cnc(N[C@@H]4C[C@H]5CCC[C@@H](C4)N5)nn3)c3cn[nH]c23)c1 [Compound 561] | < 0.1 µM | –
COc1cc(-c2ccc(-c3ccc(N(C)[C@@H]4C[C@H]5CC[C@@H](C4)N5)nn3)nc2OC)ncn1 [Compound 954] | – | 0.1 to 1 µM
COc1cc(-c2ccc(-c3ccc(O[C@@H]4C[C@H]5CC[C@@H](C4)N5)nn3)c3scnc23)cnn1 [Compound 362] | < 0.1 µM | –
Cc1ncc(-c2ccc(-c3cnc(N(C)[C@@H]4C[C@H]5CCC[C@@H](C4)N5)nn3)c3scnc23)s1 [Compound 578] | < 0.1 µM | –
c1nc2c(-c3cn[nH]c3)ccc(-c3ccc(O[C@@H]4C[C@H]5CC[C@@H](C4)N5)nn3)c2s1 [Compound 184] | < 0.1 µM | –
c1nc2c(-c3cn[nH]c3)ccc(-c3ccc(N(C4CC4)C4C[C@H]5CCC[C@@H](C4)N5)nn3)c2s1 (stereo partly drawn) [Compound 311] | 0.1 to 1 µM | –
